Assay results as given in patent publication US9617289B2, “RSV antiviral compounds” (JANSSEN R&D IRELAND, priority 2012, dated 2017).
pEC50: −log10 of the molar value.

System: rgRSV224 virus
Assay: Antiviral activity: inhibition of rgRSV224 (GFP-expressing RSV) replication in HeLa cells
Type: cell-based, respiratory syncytial virus
Settings: human respiratory syncytial virus, HeLa, 72 h, read-out: RSV-wt_pEC50, rgRSV224 (MOI=0.02) in HeLa cells, GFP expression three days post-virus exposure
Summary of the method: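 HeLa cells infected with GFP-expressing rgRSV224 at MOI 0.02 alongside 4-fold compound dilutions in duplicate (0.5% DMSO). Incubated 3 days at 37 °C; EC50 taken as 50% inhibition of GFP expression by laser microscopy. CC50 measured in parallel uninfected cells by ATP content after 3 days; SI = CC50/EC50.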

SMILES | pEC50
CC(C)(O)C(=O)N1CC[C@]2(C1)C(=O)N(Cc1nc3cc(Cl)ccc3n1CCCS(C)(=O)=O)c1ccccc12 [Compound 122, (S)-1-((5-chloro-1-(3-(methylsulfonyl)propyl)-1H-benzo[d]imidazol-2-yl)methyl)-1′-(2-hydroxy-2-methylpropanoyl)spiro[indoline-3,3′-pyrrolidin]-2-one] | 8.08
CNC(=O)O[C@H]1C[C@@]2(C1)C(=O)N(Cc1cc3cc(Cl)ccc3n1CCCC#N)c1ccccc12 [Compound 123, (1r,3r)-1′-((5-chloro)-1-(3-cyanopropyl)-1H-indol-2-yl)methyl)-2′-oxospiro[cyclobutane-1,3′-indolin]-3-yl methylcarbamate] | 9.47
N#CCCCn1c(CN2c3ccccc3[C@]3(C[C@H](NC(=O)OC4CC4)C3)C2=O)nc2cc(Cl)ccc21 [Compound 125, cyclopropyl ((1s,3s)-1′-((5-chloro-1-(3-cyanopropyl)-1H-benzo[d]imidazol-2-yl)methyl)-2′-oxospiro[cyclobutane-1,3′-indolin]-3-yl)carbamate] | 9.54
N#CCCCn1c(CN2c3ccccc3[C@]3(C[C@@H](NC(=O)OC4CC4)C3)C2=O)nc2cc(Cl)ccc21 [Compound 126, cyclopropyl ((1r,3r)-1-((5-chloro-1-(3-cyanopropyl)-1H-benzo[d]imidazol-2-yl)methyl)-2′-oxospiro[cyclobutane-1,3′-indolin]-3-yl)carbamate] | 9.59
N#CCCCn1c(CN2C(=O)C3(CN(C(=O)[C@H](O)CO)C3)c3ccccc32)cc2cc(Cl)ccc21 [Compound 131, (R)-4-(5-chloro-2-((1-(2,3-dihydroxypropanoyl)-2′-oxospiro[azetidine-3,3′-indolin]-1′-yl)methyl)-1H-indol-1-yl)butanenitrile] | 9.37
N#CCCCn1c(CN2C(=O)C3(CCN(C(=O)OC4CC4)CC3)c3ccncc32)cc2cc(Cl)ccc21 [Compound 132, Cyclopropyl 1′-{[5-chloro-1-(3-cyanopropyl)-1H-indol-2-yl]methyl}-2′-oxo-1′,2′-dihydro-1H-spiro[piperidine-4,3′-pyrrolo[2,3-c]pyridine]-1-carboxylate] | 10.19
CS(=O)(=O)CCCn1c(CN2c3ccccc3[C@]3(C[C@@H](OC(=O)N4CCOCC4)C3)C2=O)nc2cc(Cl)ccc21 [Compound 133, (1r,3r)-1′-((5-chloro-1-(3-(methylsulfonyl)propyl)-1H-benzo[d]imidazol-2-yl)methyl)-2′-oxospiro[cyclobutane-1,3′-indolin]-3-yl morpholine-4-carboxylate] | 9.85
CS(=O)(=O)CCCn1c(CN2C(=O)C3(CNC3)c3ccccc32)cc2cc(Cl)ccc21 [Compound 134, 1′-({5-Chloro-1-[3-(methylsulfonyl)propyl]-1H-indol-2-yl}methyl)spiro[azetidine-3,3′-indol]-2′(1′H)-one] | 8.70
COC(=O)N[C@H]1C[C@]2(C1)C(=O)N(Cc1nc3cc(Cl)ccc3n1CCCC#N)c1ccccc12 [Compound 135, methyl ((1s,3s)-1′-((5-chloro-1-(3-cyanopropyl)-1H-benzo[d]imidazol-2-yl)methyl)-2′-oxospiro[cyclobutane-1,3′-indolin]-3-yl)carbamate] | 10.02
COC(=O)N[C@H]1C[C@@]2(C1)C(=O)N(Cc1nc3cc(Cl)ccc3n1CCCC#N)c1ccccc12 [Compound 136, methyl ((1r,3r)-1′-((5-chloro-1-(3-cyanopropyl)-1H-benzo[d]imidazol-2-yl)methyl)-2′-oxospiro[cyclobutane-1,3′-indolin]-3-yl)carbamate] | 9.61
N#CCCCn1c(CN2C(=O)C3(CN(C(=O)C4(O)CC4)C3)c3ccccc32)cc2cc(Cl)ccc21 [Compound 137] | 9.97
CC(C)(O)C(=O)N1CCC2(C1)C(=O)N(Cc1nc3cc(Cl)ccc3n1CCCS(C)(=O)=O)c1ccccc12 (stereo not drawn) [Compound 138, 1-((5-chloro-1-(3-(methylsulfonyl)propyl)-1H-benzo[d]imidazol-2-yl)methyl)-1′-(2-hydroxy-2-methylpropanoyl)spiro[indoline-3,3′-pyrrolidlin]-2-one] | 8.67
N#CCCCn1c(CN2c3ccccc3[C@]3(C[C@@H](N)C3)C2=O)nc2cc(Cl)ccc21 [Compound 148, 4-(2-(((1r,3r)-3-amino-2′-oxospiro[cyclobutane-1,3′-indolin]-1′-yl)methyl)-5-chloro-1H-benzo[d]imidazol-1-yl)butanenitrile] | 8.33
N#CCCCn1c(CN2c3ccccc3[C@]3(C[C@H](N)C3)C2=O)nc2cc(Cl)ccc21 [Compound 149, 4-(2-(((1s,3s)-3-amino-2′-oxospiro[cyclobutane-1,3′-indolin]-1′-yl)methyl)-5-chloro-1H-benzo[d]imidazol-1-yl)butanenitrile] | 8.92
CC(=O)OCCOC(=O)N1CCC2(CC1)C(=O)N(Cc1cc3cc(Cl)ccc3n1CCCC#N)c1cnccc12 [Compound 150, 2-(Acetyloxy)ethyl 1′-{[5-chloro-1-(3-cyanopropyl)-1H-indol-2-yl]methyl}-2′-oxo-1′,2′-dihydro-1H-spiro[piperidine-4,3′-pyrrolo-[2,3-c]pyridine]-1-carboxylate] | 10.31
CC(C)(O)C(=O)N1CC2(C1)C(=O)N(Cc1cc3cc(Cl)ccc3n1CCCS(C)(=O)=O)c1ccccc12 [Compound 152, 1′-({5-Chloro-1-[3-(methylsulfonyl)propyl]-1H-indol-2-yl}methyl)-1-(2-hydroxy-2-methylpropanoyl)spiro[azetidine-3,3′-indol]-2′(1′H)-one] | 8.80
CC(C)(O)C(=O)N1CCC2(CC1)C(=O)N(Cc1c(C(N)=O)c3cc(Cl)ccc3n1CCCCF)c1cnccc12 [Compound 153, 5-Chloro-1-(4-fluorobutyl)-2-{[1-(2-hydroxy-2-methylpropanoyl)-2′-oxospiro[piperidine-4,3′-pyrrolo[2,3-c]pyridin]-1′(2′H)-yl]methyl}-1H-indole-3-carboxamide] | 10.24
CC(C)(O)C(=O)N1CCC2(C1)C(=O)N(Cc1nc3cc(Cl)ccc3n1CCCC#N)c1ccccc12 (stereo not drawn) [Compound 154, 4-(5-Chloro-2-{[1′-(2-hydroxy-2-methylpropanoyl)-2-oxospiro[indole-3,3′-pyrrolidin]-1(2H)-yl]methyl}-1H-benzimidazol-1-yl)butanenitrile] | 8.93
CC(C)(O)C(=O)N1CCC2(CC1)C(=O)N(Cc1cc3cc(Cl)ccc3n1CCCCO)c1cnccc12 [Compound 155, 1′-{[5-Chloro-1-(4-hydroxybutyl)-1H-indol-2-yl]methyl}-1 - (2-hydroxy-2-methylpropanoyl)spiro[piperidine-4,3′-pyrrolo[2,3-c]pyridin]-2′(1′H)-one] | 9.77
CC(C)(C)OC(=O)N1CCC2(CC1)C(=O)N(Cc1c(C(N)=O)c3cc(Cl)ccc3n1CCCCF)c1cnccc12 [Compound 156, tert-Butyl 1′-{[3-carbamoyl-5-chloro-1-(4-fluorobutyl)-1H-indol-2-yl]methyl}-2′-oxo-1′,2′-dihydro-1H-spiro[piperidine-4,3′-pyrrolo[2,3-c]pyridine]-1-carboxylate] | 10.17
CC(C)(C)OC(=O)N1CCC2(C1)C(=O)N(Cc1nc3cc(Cl)ccc3n1CCCC#N)c1ccccc12 (stereo not drawn) [Compound 157, tert-Butyl 1-{[5-chloro-1-(3-cyanopropyl)-1H-benzimidazol-2-yl]methyl}-2-oxo-1,2-dihydro-1′H-spiro[indole-3,3′-pyrrolidine]-1′-carboxylate] | 8.40
